Paper PMC4569415, “Pro-Oxidant Activity of Amine-Pyridine-Based Iron Complexes Efficiently Kills Cancer and Cancer Stem-Like Cells” (PLoS ONE, 2015)
Several values for one entry are separate records, joined by “and”; a condition that tells them apart may be missing. Equal values may be shown once. Read-outs that look alike come from different tables or passages of the source.

Assays:
MCF-7 cells [1] = experiment: Colony formation (clonogenic) assay; assay type: cell-based, human; settings: 10 μmol/L
Method: MCF-7 cells were seeded in 12-well plates. […] Subsequently, cells were washed with PBS, collected with trypsin and plated at low density (3000 cells in a […]). Cells were allowed to divide and form colonies for 7–10 days; after which, colonies were fixed and stained with 2% methylene blue in 50% ethanol. The number of colonies in each plate was determined using the Alpha Innotech Imaging system (Alpha Innotech, San Leandro, CA).

MCF-7 cells [2] = experiment: Cellular labile iron pool with calcein-AM; assay type: cell-based, human; settings: MCF-7, pre-incubation with ligands
MCF-7 cells [3] = experiment: Cellular DNA damage, p-H2A.X flow cytometry; assay type: cell-based, human; settings: MCF-7, 10 μmol/L, time-dependent
Method: DNA damage was assessed by monitoring the intensity of p-H2A.X fluorescence using flow cytometry. Briefly, cells were collected with trypsin, washed in PBS and fixed in 3.7% formaldehyde for 15 min on ice. Cells were then permeabilised with 0.2% v/v Triton-X100 for 10 min and incubated with 1:400 rabbit anti-p-(S139)-H2A.X antibody (Cell Signaling Technology, Danvers, MA) for 30 min on ice. After washing in 0.1% Triton-X100 in PBS, cells were incubated with 1:400 anti-rabbit Alexa 555-conjugated antibody (Jackson ImmunoResearch, Newmarket, UK) for 20 min on ice. Analysis was carried out in a FACScan flow cytometer with Flowing software.

PC-3 = experiment: MTT cytotoxicity assay; assay type: cell-based; settings: Homo sapiens, 48 h of treatment
Method: (§1) The cytotoxic activity of the compounds was determined by MTT reduction assay as described. Compounds were diluted in Milli-Q water to obtain 1 mmol/L stock solutions. Appropriate aliquots of these solutions were diluted in the corresponding cell culture medium to obtain the final working concentrations. Aliquots of 5000 1BR3G cells, 6000 MCF-7, 6000 PC-3 cells, 10 000 CAPAN-1 cells, 4000 MCF 10A cells, 4000 HMLE cells or 4000 CCD-18Co cells were seeded in 96-well plates, 24 h prior to the treatments. Hematological cell lines were seeded at 400 000 cells/mL. Cells were treated with the corresponding compound at concentrations ranging from 0 to 100 μmol/L for 48 h. Three replicates for each compound were used. The IC50 was established for each compound by standard non-linear regression and curve fitting using GraphPad Prism (Graph Pad software Inc., La Jolla, CA, USA).

Z-138 = experiment: MTT cytotoxicity assay; assay type: cell-based; settings: Homo sapiens, 48 h of treatment
Method: as §1

1BR3G = experiment: MTT cytotoxicity assay; assay type: cell-based; settings: Homo sapiens, 48 h of treatment, non malignant cells
Method: as §1

JURKAT = experiment: MTT cytotoxicity assay; assay type: cell-based; settings: Homo sapiens, 48 h of treatment
Method: as §1

CCD-18Co = experiment: MTT cytotoxicity assay; assay type: cell-based; settings: Homo sapiens, 48 h of treatment, non malignant cells
Method: as §1

MCF-10A = experiment: MTT cytotoxicity assay; assay type: cell-based; settings: Homo sapiens, 48 h of treatment, non malignant cells
Method: as §1

HMLE = experiment: MTT cytotoxicity assay; assay type: cell-based; settings: Homo sapiens, 48 h of treatment, non malignant cells
Method: as §1

caspase 3/7 = experiment: Caspase-Glo 3/7 luminometric assay; assay type: cell-based; settings: 10 μmol/L, 48 h, panel of human cancer cell lines
Method: Enzymatic caspase activity was determined after exposing the cells to compound 1, 2 and 5 at 10 μmol/L for 48 h. Caspase 3/7 activity was measured with the luminometric Caspase-Glo 3/7assay (Promega, Madison, WI, USA) using a Synergy HT multi-detection microplate reader (Bio-Tek).

HMLER cells = experiment: MTT cytotoxicity assay in non-CS-like parental cells; assay type: cell-based; settings: Homo sapiens, 48 h
Method: as §1
(§2) Fig 2 Cell viability assay. (A) Cytotoxic activity of compounds 1, 2, and 5 against cancer cells. The indicated cell lines were treated for 48 h with ligands (10 μmol/L) and cell viability was measured with the MTT assay. Data represents the percentage of viable cells relative to untreated cells (control). (B) Cytotoxicity of doxorubicin and compounds 1, 2 and 5 against CS-like cells. CS-like HMLER-shEcad cells and non-CS-like HMLER isogenic parental cells were treated for 48 h with graded concentrations of doxorubicin, 1, 2 and 5. Cell viability was measured with the MTT assay. For each treatment, the percentage of viable cells relative to untreated cells is indicated. Data represents the mean±SD of 3 independent experiments performed in triplicate.

CAPAN-1 cells [4] = experiment: MTT cytotoxicity assay; assay type: cell-based, human; settings: for viability at 10 µM / IC50 / viability at 5 µM: Homo sapiens; for viability at 10 µM: CAPAN-1, compound 10 μmol/L; for viability at 10 µM / viability at 5 µM: read-out: CAPAN-1 cell viability; for IC50: CAPAN-1, MTT, 48 h of compound exposure; for viability at 5 µM: CAPAN-1, compound 5 μmol/L
Method: as §1

MCF-7 cells [5] = experiment: MTT cytotoxicity assay; assay type: cell-based, human; settings: for IC50: Homo sapiens, MCF7, MTT, 48 h of compound exposure
Method: as §1

[6] = system: tumor (PC-3, Z-138 and JURKAT) cell lines; experiment: MTT cytotoxicity assay, tumor cell selection; assay type: cell-based; settings: Homo sapiens, range over PC-3, Z-138 and JURKAT, 48 h, read-out: IC50 values against tumor cells (range)
Method: as §1

CAPAN-1 cells [7] = experiment: Cellular labile iron pool with calcein-AM; assay type: cell-based, human; settings: CAPAN-1, 10 μmol/L, 24 h
Method: The cellular labile iron pool was determined with calcein-AM. CAPAN-1 cells (125 000 cells/ well) were seeded in 24-well plates and incubated for 24 h. Then, cells were treated for 24 h with 10 μmol/L of compound 1, 2 or 5 at 37°C. In some experiments, cells were incubated for 2 h with 100 μmol/L of DFO or 100 μmol/L FeCl2. Cells exposed to the vehicle alone were used as a control. After treatments, cells were washed with PBS and incubated with calcein-AM (0.25 μmol/L) for 30 min at 37°C in the dark. Subsequently, cells were washed and collected with trypsin and the geometric mean fluorescence intensity of 10 000 cells was determined by flow cytometry as described.

[8] = system: human leukemia, lymphoma and glioma cancer cells; experiment: MTT cell viability at 10 μmol/L, cell line panel; assay type: cell-based; settings: 48 h
Method: as §1, §2

Hemolytic assay = assay type: cell-based; settings: human, erythrocyte suspension of fresh human blood (5% vol/vol)
Method: The hemolytic activity of the compounds at 100 μmol/L was evaluated by determining hemoglobin release from erythrocyte suspensions of fresh human blood (5% vol/vol) as described.

[9] = compound 10 μmol/L, FeCl2 100 μmol/L pre-incubation
[10] = compound 5 μmol/L, pretreated with 100 μmol/L FeCl2 for 2 h

Compound	reduction of colony number vs control (MCF-7 cells [1]; 3 h exposure)	reduction of colony number vs control (MCF-7 cells [1]; 24 h exposure)	calcein fluorescence compared with untreated cells (MCF-7 cells [2])	increase in phosphorylated H2A.X (MCF-7 cells [3])	IC50 (PC-3)	IC50 (Z-138)	IC50 (1BR3G)	IC50 (JURKAT)	IC50 (CCD-18Co)	IC50 (MCF-10A)	IC50 (HMLE)	caspase 3/7 activation (caspase 3/7)	IC50 (HMLER cells)	IC50 (CAPAN-1 cells [4])	IC50 (MCF-7 cells [5])	IC50 [6]	calcein fluorescence intensity, % of untreated cells (CAPAN-1 cells [7])	antiproliferative activity at 10 μmol/L [8]	hemolysis at 100 µM (Hemolytic assay)	further results
c1ccc(CN2CCC[C@H]2[C@@H]2CCCN2Cc2ccccn2)nc1 [Compound 1]	0%	57% and 56.6%	131.4±13.2%	three fold	8.5 ± 1.4 µM	4.8 ± 1.2 µM	12.7 ± 1.6 µM	15.1 ± 3.1 µM	27 ± 4.4 µM	18.8 ± 2.9 µM	6.4 ± 4 µM	significant caspase 3/7 activation in lymphoma (Z-138, Jeko-1, Granta and SP-53) but not in leukemia (JURKAT) or glioma (LN229 and U87MG) cell lines	6.5 ± 0.4 µM	9.9 ± 1.01 µM	7.4 ± 0.2 µM	4.8 to 15.1 µM	141.4±19.5%	high antiproliferative activity	0%	reduction of colony number vs control (MCF-7 cells [1]; 5 h exposure): 18.7%; reduction of colony number vs control (MCF-7 cells [1]; 12 h exposure): 40.5%; viability at 10 µM (CAPAN-1 cells [4]; presence of NAC): 45.2 ± 5.4%; viability at 10 µM (CAPAN-1 cells [4]; without NAC): 40.7 ± 6.9%; enhancement of cytotoxicity by FeCl2 pretreatment, CAPAN-1 (CAPAN-1 cells [4]; [9]): 25.5%; enhancement of cytotoxicity by FeCl2 pretreatment, MCF-7 (MCF-7 cells [5]; [9]): 58.6%
CN1CCN(Cc2ccccn2)CCN(Cc2ccccn2)CC1 [Compound 5]	–	53%	only a moderate iron-chelating effect	four fold	7.7 ± 0.3 µM	2.9 ± 0.4 µM	18 ± 4.2 µM	5.4 ± 1.3 µM	53.5 ± 3.5 µM	23.8 ± 1.3 µM	6.1 ± 0.1 µM	activating caspase 3/7 in most cell lines except PC-3 cells	5.1 ± 0.1 µM	7.9 ± 0.5 µM	7.7 ± 0.3 µM	2.9 to 7.7 µM	144.6±13.8%	high antiproliferative activity	0%	effect of NAC on cytotoxicity (CAPAN-1 cells [4]; CAPAN-1, NAC 5 mmol/L): no protective effect of NAC
CN(C)c1ccnc(CN2CCC[C@H]2[C@@H]2CCCN2Cc2cc(N(C)C)ccn2)c1 [Compound 2]	39%	almost abolished	133.8±10.02%	three fold	3.8 ± 0.2 µM	4.4 ± 0.3 µM	7.5 ± 0.5 µM	7.2 ± 1.9 µM	20.7 ± 0.3 µM	6.5 ± 1.3 µM	7 ± 0.3 µM	clearly increased caspase 3/7 activity in all cell lines	6.6 ± 0.3 µM	6 ± 0.7 µM	3.7 ± 0.4 µM	3.8 to 7.2 µM	136.8±11.7%	high antiproliferative activity	0%	viability at 5 µM (CAPAN-1 cells [4]; absence of NAC): 23.9 ± 2.9%; viability at 5 µM (CAPAN-1 cells [4]; presence of 5 mmol/L NAC): 33.6 ± 3.8%; increase in cell survival by NAC (CAPAN-1 cells [4]; compound 5 μmol/L, 5 mmol/L NAC): 40.6%; reduction in CAPAN-1 cell viability in FeCl2-pretreated cells (CAPAN-1 cells [4]; [10]): 37.7%; reduction in MCF-7 cell viability in FeCl2-pretreated cells (MCF-7 cells [5]; [10]): 51.8%
